The results in this text go back to paper PMC4609890, “Discovery of novel small molecule modulators of Clavibacter michiganensis subsp. michiganensis” (Frontiers in Microbiology, 2015).

Converted amounts (≈) assume the structure as drawn.

The test system of experiment [1] is Clavibacter michiganensis subsp. michiganensis (Cmm). Briefly: Minimum bacteriocidal concentration (MBC) for Cmm. In kind it is cell-based. As to conditions: read-out: MBCs. The method, then: (§1) Seventy-seven selected compounds were re-ordered from ChemBridge in a 96-well format as a powder. The compounds were dissolved in 100 μl DMSO and stored at -80°C until used. […] In addition, ability of Cmm to develop resistance to selected compounds was tested.
(§2) Single step and sequential passage resistance assays were performed as described previously with few modifications ([Ling et al., 2015]). Eleven of the 12 top hit compounds were tested in this experiment and one could not be resynthesized. […] The MBCs for each of these compounds were determined as described previously ([Ling et al., 2015]).

Experiment [2] shares this test system. Briefly: Resistance evaluation by single step at a lethal dose. In kind it is cell-based. To be noted: 5 days on NBY agar with 2X MIC, 1 × 10^9 CFU. The method, then: as §2
Cmm grown in NBY medium at 28°C for 48 h was centrifuged at 4,700 × g for 15 min at room temperature. Supernatant was discarded and bacteria were resuspended in sterile water to a concentration of 2 × 10^10 CFU/ml). Compounds (2× MIC) were mixed with […] of molten NBY agar medium and transferred to duplicate wells of a 24-well culture plate. Agar in the plate was allowed to solidify in the dark. Fifty microlitre of Cmm culture (1 × 10^9 CFU) was added to test wells, dried in the dark at room temperature, and incubated at 28°C for 5 days in the dark. Bacteria spread on NBY agar with 50 μg/ml kanamycin or NBY agar itself was used as positive and negative controls, respectively. After 5 days of incubation, any colonies that developed were assessed for resistance to the test compounds by determining MIC and the MBC as noted above.

Experiment [3] has the same test system. Briefly: Resistance evaluation by sequential passage at sub-lethal doses. In kind it is cell-based. To be noted: 15 passages in liquid NBY at 0.75X MIC. The method, then:
as §2
Clavibacter michiganensis subsp. michiganensis cultures grown in NBY broth medium at 28°C for 24 h were suspended in fresh NBY broth and normalized to an OD600 of 0.01 (5 × 10^6 CFU/ml). One-hundred microliters fresh culture was transferred to duplicate wells of a 96-well microtiter plate each containing 0.75× MIC of a test compound (concentration allowing >50% growth inhibition). Cmm cultured in 20 μg/ml chloramphenicol, 50 μg/ml kanamycin, or 2% DMSO, or non-amended NBY broth were used as controls. The bacteria were incubated at 28°C, 150 rpm, for 24 h in the dark. Following incubation, plates were centrifuged at 2,100 × g for 5 min at room temperature. The supernatant was discarded, bacteria were resuspended in 100 μl fresh NBY and transferred into a new 96-well plate containing 0.75× MIC of the same small molecule. This procedure was repeated 14 times. Following 15 passages, bacterial suspensions were assessed for resistance to the test compound by assessing MIC and MBC as noted above.

Experiment [4] has the same test system. Briefly: Minimum inhibitory concentration (MIC) for Cmm growth. In kind it is cell-based. As to conditions: read-out: MICs. On the procedure:
Seventy-seven selected compounds were re-ordered from ChemBridge in a 96-well format as a powder. The compounds were dissolved in 100 μl DMSO and stored at -80°C until used. […] In addition, ability of Cmm to develop resistance to selected compounds was tested. […]

The subject of experiment [5] is Bacillus subtilis GB03. Briefly: Secondary screen kinetic growth inhibition of B. subtilis. As to conditions: 200 μM. In kind it is cell-based. On the procedure: as §1
(§3) Screening for growth inhibition of Cmm strains, plant beneficial bacteria and human gut bacteria was set up similarly to the initial screen using 1 μl of 2 μmol suspensions of each compound. Plates were incubated in a Sunrise^TM Tecan microplate reader for kinetic measurement of growth every 15 min for 24 h. Growth curves were analyzed in DB interface software and the effect of each compound on growth was evaluated based on the ratio of area under growth curve (compound/control) as “no significant effect (ratio > 0.5),” “inhibition (ratio ≤ 0.5),” “static (ratio = 0, bacterial growth revived after streak on a fresh NBY plate)” and “cidal (ratio = 0, bacterial growth not revived)” ([Wallace et al., 2011]).

Experiment [6] relates to Gram-negative bacteria tested. Briefly: Secondary screen kinetic growth inhibition of Gram-negative bacteria. In kind it is cell-based. To be noted: 200 μM. On the procedure:
as §1, §3

Experiment [7] deals with Cmm strains. Briefly: Secondary screen kinetic growth inhibition of Cmm strains. In kind it is cell-based, Clavibacter michiganensis subsp. michiganensis. As to conditions: kinetic growth 24 h. On the procedure:
as §1, §3

In experiment [8] the test system is plant beneficial bacteria and human gut bacteria. Briefly: Secondary screen on plant beneficial bacteria and human gut bacteria (antibacterial spectrum). In kind it is cell-based. As to conditions: compared with other 11 compounds; data not shown. The method, then: as §1, §3
The test system of experiment [9] is Cmm BL-Cmm17. Briefly: Bioluminescent Cmm tomato seedling infection assay. In kind it is in vivo. To be noted: seeds infested with BL-Cmm17, compound applied to seed, 8-days-old seedlings plated. The method, then: A bioluminescent Cmm strain, BL-Cmm17, was used to monitor the effect of selected small molecules on Cmm infection of tomato seedlings in vivo ([Xu et al., 2010]). Briefly, tomato seeds (cv. OH9242) were infested by soaking in BL-Cmm17 suspension (10^8 CFU/ml) in a 100-ml sterile beaker. The beaker was placed in a Nucerite Desiccator (Nalge Sybron Corporation, Rochester, NY, USA), and a vacuum was applied for 5 min using an Air Cadet pump (Barnant, Barrington, IL, USA) with a maximum of 18 lb/in^2 pressure. Seeds treated similarly with sterilized water were used as controls. After inoculation, seeds were air-dried and one seed was placed in a 1.2 ml library tube containing 400 μl of 1% water agar; tubes were placed in wells of a 96-well plate. The selected compound (1 μl of 2 μmol in 50 μl water) was applied to each seed and the plate was incubated at 25°C under 8 h/16 h light/dark conditions. There were three replicate seeds/plate per treatment. Bioluminescence images were taken using an in vivo imaging system (IVIS Model 100; PerkinElmer, Waltham, MA, USA) 3 and 8 days later. Eight-days-old seedlings were ground in potassium phosphate buffer and extracts were serially diluted and plated on NBY to assess the presence of Cmm.

Take `COc1cccc(-c2ccccc2NC(=O)C2CCN(Cc3ccc(OC)cc3F)CC2)c1` [Compound 1]: in [1], the MBC stood at 25 µM (≈ 11.2 µg/mL). In addition, the “Resistant colonies after incubation at lethal (2X MIC) concentration” value (“Resistant colonies after incubation” for short) in experiment [2] is given as “None”. Further, the “Resistant colonies after growth at sub-lethal (0.75X MIC) concentration” value (“Resistant colonies after growth” below) in [3] is recorded as “None”. Besides, the MIC in [4] is 25 µM (≈ 11.2 µg/mL).
For the molecule `CN(Cc1nc2ccccc2[nH]1)Cc1c[nH]nc1-c1ccc(-c2ccccc2)cc1` [Compound 2], the MBC in [1] is 50 µM (≈ 19.7 µg/mL). Moreover, the “Resistant colonies after incubation” value in experiment [2] is “None”. Also, the “Resistant colonies after growth” value in experiment [3] is “None”. Further, in experiment [4], the MIC is 25 µM (≈ 9.84 µg/mL).
With `Cc1cc(O)ccc1Nc1nc(-c2cccs2)cs1` [Compound 3], in experiment [1], the MBC worked out at 50 µM (≈ 14.4 µg/mL). In addition, in [2], the “Resistant colonies after incubation” value is on record as “None”. In addition, in experiment [5], the “Effect on B. subtilis growth” value is given as “cidal (cidal (ratio = 0, bacterial growth not revived))”. In addition, the “Resistant colonies after growth” value in experiment [3] is recorded as “None”. Further, the MIC in experiment [4] amounted to 50 µM (≈ 14.4 µg/mL). Further, in experiment [6], the “Effect on growth of Gram-negative bacteria tested” value was “not”. Besides, the “Effect on Cmm growth” value in [7] is reported as “cidal (cidal (ratio = 0, bacterial growth not revived))”.
As to `CC(C)Cc1ccc(CN2CCCC(NC(=O)CCn3c(CO)nc4ccccc43)C2)cc1` (stereo not drawn) [Compound 4], the MBC in experiment [1] was found to be 100 µM (≈ 44.9 µg/mL). Also, the “Resistant colonies after incubation” value in experiment [2] is on record as “None”. For the same molecule, the “Resistant colonies after growth” value in [3] is recorded as “None”. Further, the MIC in experiment [4] worked out at 100 µM (≈ 44.9 µg/mL).
As for `CC1CCC(C(C)C)C(OC(=O)Cn2c[n+](CC(=O)OC3CC(C)CCC3C(C)C)c3ccccc32)C1` (stereo not drawn) [Compound 5], the MBC in [1] came to 5 µM. In addition, in experiment [2], the “Resistant colonies after incubation” value was “None”. For the same molecule, in experiment [3], the “Resistant colonies after growth” value was “None”. For the same molecule, the MIC in experiment [4] stood at 5 µM. Besides, in experiment [8], the Antibacterial spectrum result is “broader antibacterial spectrum”.
Take `O=C(Nc1cccc(-c2cscn2)c1)C1CCN(C/C=C/c2ccc(F)cc2)CC1` [Compound 6]: the MBC in experiment [1] was 50 µM (≈ 21.1 µg/mL). In addition, the “Resistant colonies after incubation” value in experiment [2] is “None”. The “Resistant colonies after growth” value in experiment [3] is on record as “None”. The MIC in [4] amounted to 50 µM (≈ 21.1 µg/mL).
Turning to `Cc1ccnc(Nc2nc(-c3ccc(O)c(O)c3)cs2)c1` [Compound 7], the MBC in [1] was determined as 50 µM (≈ 15 µg/mL). Further, the “Resistant colonies after incubation” value in [2] is “None”. Besides, the “Effect on B. subtilis growth” value in [5] was “cidal (cidal (ratio = 0, bacterial growth not revived))”. Also, the “Resistant colonies after growth” value in experiment [3] is recorded as “None”. Also, the MIC in [4] stood at 50 µM (≈ 15 µg/mL). Moreover, the “Effect on growth of Gram-negative bacteria tested” value in experiment [6] is given as “not”. In experiment [7], the “Effect on Cmm growth” value was “cidal (cidal (ratio = 0, bacterial growth not revived))”.
On to `CCOC(=O)N1CCN(CC(O)COc2ccc(C3CCCCC3)cc2)CC1` (stereo not drawn) [Compound 8], for which the MBC in experiment [1] was 50 µM (≈ 19.5 µg/mL). Further, the “Resistant colonies after incubation” value in experiment [2] is reported as “None”. In [3], the “Resistant colonies after growth” value was “None”. Moreover, in [4], the MIC was found to be 50 µM (≈ 19.5 µg/mL).
With `CCCOc1ccc(C(=O)C2=C(O)C(=O)N(CCCN(C)C)C2c2ccc(Cl)cc2)cc1C` (stereo not drawn) [Compound 9], the MBC in [1] worked out at 100 µM (≈ 47.1 µg/mL). Besides, the “Resistant colonies after incubation” value in experiment [2] was “None”. Also, the “Resistant colonies after growth” value in experiment [3] is reported as “None”. For the same molecule, the MIC in experiment [4] was found to be 50 µM (≈ 23.5 µg/mL).
As for `COc1cccc(-c2ccc(NC(=O)C3CCCN(Cc4cccc(O)c4)C3)cc2)c1` (stereo not drawn) [Compound 12], the MBC in experiment [1] was found to be 25 µM (≈ 10.4 µg/mL). The “Resistant colonies after incubation” value in [2] was “None”. Besides, in experiment [3], the “Resistant colonies after growth” value is reported as “None”. For the same molecule, the MIC in experiment [4] was 12.5 µM (≈ 5.21 µg/mL). In experiment [9], the “Cmm growth reduction in tomato seedlings” value is given as “over 0.5 log”.
